Source: patent US11180462B2, “Microbiocidal oxadiazole derivatives” (SYNGENTA PARTICIPATIONS AG, priority 2015, dated 2021)

How the values were obtained:
[1] = system: Glomerella lagenarium (Colletotrichum lagenarium); assay: Fungicidal activity against Glomerella lagenarium (Colletotrichum lagenarium) liquid culture / cucumber / preventative (anthracnose); assay type: cell-based; conditions: Colletotrichum orbiculare; 20 ppm in the applied formulation; liquid culture (PDB), growth inhibition measured photometrically after 3 to 4 days; compared to untreated control; read-out: disease control
How it was run: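 Photometric read-out of fungal growth after 2–7 days, expressed as percent antifungal activity versus untreated check. Cryo-stored conidia in PDB; compound at 20 ppm; dark, 24 °C, 96% RH.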

[2] = system: Puccinia recondita f. Sp. Tritici; assay: Fungicidal activity against Puccinia recondita f. sp. tritici / wheat / leaf disc curative (brown rust); assay type: in vivo; conditions: foliar, 24 h, 200 ppm in the applied formulation, wheat leaf segments, curative (applied 1 day after inoculation), compared to untreated control leaf disks, read-out: disease control
How it was run: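 Curative test on wheat leaf segments (cv. Kanzler) on agar, inoculated with spore suspension and held dark at 19° C, 75% RH; formulated compound in water applied 1 day after inoculation. Incubated at 19° C, 75% RH, 12 h light/12 h dark; percent disease control versus untreated scored 6 to 8 days after application.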

[3] = system: Puccinia recondita f. Sp. Tritici; assay: Fungicidal activity against Puccinia recondita f. sp. tritici / wheat / leaf disc preventative (brown rust); assay type: in vivo; conditions: foliar, 200 ppm in the applied formulation, wheat leaf segments, preventative, compared to untreated control leaf disks, read-out: disease control
How it was run: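 Compound application precedes infection: segments of wheat cv. Kanzler, sprayed at 200 ppm, are inoculated with a spore suspension after 1 day. Incubation is at 19° C. with 75% relative humidity and 12 h light/12 h darkness, and control versus untreated leaves is rated 7 to 9 days post-application.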

[4] = system: Phakopsora Pachyrhizi; assay: Fungicidal activity against Phakopsora pachyrhizi / soybean / leaf disc preventative (Asian soybean rust); assay type: in vivo; conditions: foliar, 200 ppm in the applied formulation, soybean leaf disks, compared to untreated control leaf disks, read-out: disease control
How it was run: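 Preventative soybean leaf-disc test: discs on water agar sprayed with diluted formulated compound, inoculated one day later with spores on the lower surface. Held 24–36 h dark at 20°C, 75% rh, then 12 h light/day; percent disease control versus untreated discs scored 12–14 days after application.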

O=C(C1CCOC1)N(O)Cc1ccc(-c2noc(C(F)(F)F)n2)cc1 (centres unmarked) [Compound 1.756, N-hydroxy-N-[[4-[5-(trifluoromethyl)-1,2,4-oxadiazol-3-yl]phenyl]methyl]-tetrahydrofuran-3-carboxamide]
≥ 80%: inhibition of growth at 20 ppm [1] | pest or weed control at 200 ppm [2] | pest or weed control at 200 ppm [3] | pest or weed control at 200 ppm [4]

CCCON(Cc1ccc(-c2noc(C(F)(F)F)n2)cc1)C(=O)C1(C)COC1 [Compound 1.309, 3-methyl-N-propoxy-N-[[4-[5-(trifluoromethyl)-1,2,4-oxadiazol-3-yl]phenyl]methyl]-oxetane-3-carboxamide]
≥ 80%: inhibition of growth at 20 ppm [1] | pest or weed control at 200 ppm [2] | pest or weed control at 200 ppm [3] | pest or weed control at 200 ppm [4]

CCON(Cc1ccc(-c2noc(C(F)(F)F)n2)cc1)C(=O)COC [Compound 1.567, N-ethoxy-2-methoxy-N-[[4-[5-(trifluoromethyl)-1,2,4-oxadiazol-3-yl]phenyl]methyl]-acetamide]
≥ 80%: inhibition of growth at 20 ppm [1] | pest or weed control at 200 ppm [2] | pest or weed control at 200 ppm [3] | pest or weed control at 200 ppm [4]

CC=CCC(=O)N(Cc1ccc(-c2noc(C(F)(F)F)n2)cc1)C1CC1 [Compound 1.114, N-cyclopropyl-N-[[4-[5-(trifluoromethyl)-1,2,4-oxadiazol-3-yl]phenyl]methyl]pent-3-enamide]
≥ 80%: inhibition of growth at 20 ppm [1] | pest or weed control at 200 ppm [2] | pest or weed control at 200 ppm [3] | pest or weed control at 200 ppm [4]

O=C(ON(Cc1ccc(-c2noc(C(F)(F)F)n2)cc1)C(=O)C1CC1)C1CC1 [Compound 1.608, [cyclopropanecarbonyl-[[4-[5-(trifluoromethyl)-1,2,4-oxadiazol-3-yl]phenyl]methyl]-amino]-cyclopropane-carboxylate]
≥ 80%: inhibition of growth at 20 ppm [1] | pest or weed control at 200 ppm [2] | pest or weed control at 200 ppm [3] | pest or weed control at 200 ppm [4]

O=C(C1CCSCC1)N(Cc1ccc(-c2noc(C(F)(F)F)n2)cc1)CC1CC1 [Compound 1.230, N-(cyclopropylmethyl)-N-[[4-[5-(trifluoromethyl)-1,2,4-oxadiazol-3-yl]phenyl]methyl]-tetrahydrothiopyran-4-carboxamide]
≥ 80%: inhibition of growth at 20 ppm [1] | pest or weed control at 200 ppm [2] | pest or weed control at 200 ppm [3] | pest or weed control at 200 ppm [4]

C#CCOC(=O)NC(C(=O)N(Cc1ccc(-c2noc(C(F)(F)F)n2)cc1)OC)C(C)C (centres unmarked) [Compound 1.77, prop-2-ynyl N-[1-[methoxy-[[4-[5-(trifluoromethyl)-1,2,4-oxadiazol-3-yl]phenyl]methyl]carbamoyl]-2-methyl-propyl]carbamate]
≥ 80%: inhibition of growth at 20 ppm [1] | pest or weed control at 200 ppm [2] | pest or weed control at 200 ppm [3] | pest or weed control at 200 ppm [4]

C=CC(=O)N(Cc1ccc(-c2noc(C(F)(F)F)n2)cc1)C(C)CC (centres unmarked) [Compound 1.387, N-sec-butyl-N-[[4-[5-(trifluoromethyl)-1,2,4-oxadiazol-3-yl]phenyl]methyl]-prop-2-enamide]
≥ 80%: inhibition of growth at 20 ppm [1] | pest or weed control at 200 ppm [2] | pest or weed control at 200 ppm [3] | pest or weed control at 200 ppm [4]

CC(C)N(Cc1ccc(-c2noc(C(F)(F)F)n2)cc1)C(=O)C1CCC1 [Compound 1.675, N-isopropyl-N-[[4-[5-(trifluoromethyl)-1,2,4-oxadiazol-3-yl]phenyl]methyl]-cyclobutane-carboxamide]
≥ 80%: inhibition of growth at 20 ppm [1] | pest or weed control at 200 ppm [2] | pest or weed control at 200 ppm [3] | pest or weed control at 200 ppm [4]

CCC(=O)N(Cc1ccc(-c2noc(C(F)(F)F)n2)cc1)CC1CC1 [Compound 1.227, N-(cyclopropylmethyl)-N-[[4-[5-(trifluoromethyl)-1,2,4-oxadiazol-3-yl]phenyl]methyl]-propanamide]
≥ 80%: inhibition of growth at 20 ppm [1] | pest or weed control at 200 ppm [2] | pest or weed control at 200 ppm [3] | pest or weed control at 200 ppm [4]

CON(Cc1ccc(-c2noc(C(F)(F)F)n2)cc1)C(=O)C(C)CC(C)=O (centres unmarked) [Compound 1.22, N-methoxy-2-methyl-4-oxo-N-[[4-[5-(trifluoromethyl)-1,2,4-oxadiazol-3-yl]phenyl]methyl]-pentanamide]
≥ 80%: inhibition of growth at 20 ppm [1] | pest or weed control at 200 ppm [2] | pest or weed control at 200 ppm [3] | pest or weed control at 200 ppm [4]

C#CCN(Cc1ccc(-c2noc(C(F)(F)F)n2)cc1)C(=O)C1CC1 [Compound 1.201, N-prop-2-ynyl-N-[[4-[5-(trifluoromethyl)-1,2,4-oxadiazol-3-yl]phenyl]methyl]-cyclopropane-carboxamide]
≥ 80%: inhibition of growth at 20 ppm [1] | pest or weed control at 200 ppm [2] | pest or weed control at 200 ppm [3] | pest or weed control at 200 ppm [4]

O=C(C1CCC1)N(Cc1ccc(-c2noc(C(F)(F)F)n2)cc1)C1COC1 [Compound 1.742, N-(oxetan-3-yl)-N-[[4-[5-(trifluoromethyl)-1,2,4-oxadiazol-3-yl]phenyl]methyl]-cyclobutane-carboxamide]
≥ 80%: inhibition of growth at 20 ppm [1] | pest or weed control at 200 ppm [2] | pest or weed control at 200 ppm [3] | pest or weed control at 200 ppm [4]

CON(Cc1ccc(-c2noc(C(F)(F)F)n2)cc1)C(=O)CC(C)C [Compound 1.34, N-methoxy-3-methyl-N-[[4-[5-(trifluoromethyl)-1,2,4-oxadiazol-3-yl]phenyl]methyl]-butanamide]
≥ 80%: inhibition of growth at 20 ppm [1] | pest or weed control at 200 ppm [2] | pest or weed control at 200 ppm [3] | pest or weed control at 200 ppm [4]

COCCNC(=O)N(Cc1ccc(-c2noc(C(F)(F)F)n2)cc1)OC [Compound 3.2, 1-methoxy-3-(2-methoxyethyl)-1-[[4-[5-(trifluoromethyl)-1,2,4-oxadiazol-3-yl]phenyl]methyl]-urea]
≥ 80%: inhibition of growth at 20 ppm [1] | pest or weed control at 200 ppm [2] | pest or weed control at 200 ppm [3] | pest or weed control at 200 ppm [4]

CC(C)N(Cc1ccc(-c2noc(C(F)(F)F)n2)cc1)C(=O)CC(F)(F)F [Compound 1.686, 3,3,3-trifluoro-N-isopropyl-N-[[4-[5-(trifluoromethyl)-1,2,4-oxadiazol-3-yl]phenyl]methyl]-propanamide]
≥ 80%: inhibition of growth at 20 ppm [1] | pest or weed control at 200 ppm [2] | pest or weed control at 200 ppm [3] | pest or weed control at 200 ppm [4]

CON(Cc1ccc(-c2noc(C(F)(F)F)n2)cc1)C(=O)Cc1ccc(Cl)cc1 [Compound 1.49, 2-(4-chlorophenyl)-N-methoxy-N-[[4-[5-(trifluoromethyl)-1,2,4-oxadiazol-3-yl]phenyl]methyl]-acetamide]
≥ 80%: inhibition of growth at 20 ppm [1] | pest or weed control at 200 ppm [2] | pest or weed control at 200 ppm [3] | pest or weed control at 200 ppm [4]

C=CCN(Cc1ccc(-c2noc(C(F)(F)F)n2)cc1)C(=O)CC [Compound 1.477, N-allyl-N-[[4-[5-(trifluoromethyl)-1,2,4-oxadiazol-3-yl]phenyl]methyl]-propanamide]
≥ 80%: inhibition of growth at 20 ppm [1] | pest or weed control at 200 ppm [2] | pest or weed control at 200 ppm [3] | pest or weed control at 200 ppm [4]

CON(Cc1ccc(-c2noc(C(F)(F)F)n2)cc1)C(=O)C1CCSCC1 [Compound 1.46, N-methoxy-N-[[4-[5-(trifluoromethyl)-1,2,4-oxadiazol-3-yl]phenyl]methyl] tetrahydrothiopyran-4-carboxamide]
≥ 80%: inhibition of growth at 20 ppm [1] | pest or weed control at 200 ppm [2] | pest or weed control at 200 ppm [3] | pest or weed control at 200 ppm [4]

CN(Cc1ccc(-c2noc(C(F)(F)F)n2)cc1)C(=O)COC(F)F [Compound 1.595, 2-(difluoromethoxy)-N-methyl-N-[[4-[5-(trifluoromethyl)-1,2,4-oxadiazol-3-yl]phenyl]methyl]-acetamide]
≥ 80%: inhibition of growth at 20 ppm [1] | pest or weed control at 200 ppm [2] | pest or weed control at 200 ppm [3] | pest or weed control at 200 ppm [4]

C=CCN(Cc1ccc(-c2noc(C(F)(F)F)n2)cc1)C(=O)C1CC1C (centres unmarked) [Compound 1.480, N-allyl-2-methyl-N-[[4-[5-(trifluoromethyl)-1,2,4-oxadiazol-3-yl]phenyl]methyl]-cyclopropane-carboxamide]
≥ 80%: inhibition of growth at 20 ppm [1] | pest or weed control at 200 ppm [2] | pest or weed control at 200 ppm [3] | pest or weed control at 200 ppm [4]

O=C(C1CCC1)N(Cc1ccc(-c2noc(C(F)(F)F)n2)cc1)C1CC1 [Compound 1.112, N-cyclopropyl-N-[[4-[5-(trifluoromethyl)-1,2.4-oxadiazol-3-yl]phenyl]methyl]-cyclobutane-carboxamide]
≥ 80%: inhibition of growth at 20 ppm [1] | pest or weed control at 200 ppm [2] | pest or weed control at 200 ppm [3] | pest or weed control at 200 ppm [4]

CC1CC1C(=O)N(Cc1ccc(-c2noc(C(F)(F)F)n2)cc1)C(C)C (centres unmarked) [Compound 1.676, N-isopropyl-2-methyl-N-[[4-[5-(trifluoromethyl)-1,2,4-oxadiazol-3-yl]phenyl]methyl]-cyclopropane-carboxamide]
≥ 80%: inhibition of growth at 20 ppm [1] | pest or weed control at 200 ppm [2] | pest or weed control at 200 ppm [3] | pest or weed control at 200 ppm [4]
